{
  "source": "paper PMC7217150",
  "about": "“Synthesis, Modification, and Biological Evaluation of a Library of Novel Water‐Soluble Thiopyridone‐Based Organometallic Complexes and Their Unexpected (Biological) Behavior” (Chemistry (Weinheim an Der Bergstrasse, Germany), 2020)",
  "assay_type_in_all_cases": "cell-based, human",
  "key": {"[1]": {"tested_on": "A549", "assay": "MTT cytotoxicity assay, monolayer culture", "conditions": "exposure time 96 h, means ± SDs", "excerpt": "(§1) A549 (non‐small cell lung carcinoma), SW480 and HCT‐116 (both colon carcinoma) were kindly provided by Brigitte Marian, Institute of Cancer Research, Department of Medicine I, Medical University of Vienna, Austria. The cell line CH1/PA‐1 (ovarian teratocarcinoma) was kindly provided by Lloyd R. Kelland (CRC Centre for Cancer Therapeutics, Institute of Cancer Research, Sutton, UK). All cell culture media (including supplements) and reagents were obtained from Sigma–Aldrich, and all plasticware from StarLab, unless indicated otherwise."}, "[2]": {"tested_on": "CH1/PA‐1", "assay": "MTT cytotoxicity assay, monolayer culture", "conditions": "CH1/PA‐1, MTT assay, exposure time 96 h, means ± SDs", "excerpt": "as §1"}, "[3]": {"tested_on": "SW480", "assay": "MTT cytotoxicity assay, monolayer culture", "conditions": "SW480, MTT assay, exposure time 96 h, means ± SDs", "excerpt": "as §1"}, "[4]": {"tested_on": "CH1/PA‐1", "assay": "Cell cycle distribution, flow cytometry with propidium iodide", "conditions": "for Cell cycle distribution G1, % / Cell cycle distribution S, % / Cell cycle distribution G2/M, %: 24 h, mean ± SD; for Relative change in cell cycle distribution G1, % / Relative change in cell cycle distribution G2/M, % / Relative change in cell cycle distribution S, %: difference to untreated control", "method": "(§2) The influence of two ligands, as well as seven complexes on cell cycle distribution was tested in two of the cancer cell lines (SW480, CH1/PA‐1) by means of flow cytometry. The cell cycle distribution (G1, S, G2/M phase in %; Table S37) was investigated upon DNA staining with propidium iodide.\n(§3) CH1/PA‐1 and SW480 cells were harvested by trypsinization, 8×10^4 and 1.2×10^5 cells per well were seeded into 12‐well plates, respectively. The cells were allowed to attach and resume proliferation for 24 h after the seeding. […] After continuous exposure for 24 h at 37 °C and under 5 % CO2, the cells were harvested by trypsinization and centrifuged at 300 g for 3 min. The cells were washed with PBS (1 mL) and resuspended in propidium iodine (PI) containing HSF buffer (600 μL; 0.1 % Triton X‐100, 0.1 % sodium citrate, 50 μg mL^−1 PI in PBS). After incubation overnight at 4 °C in the dark, 5×10^3 cells were measured by flow cytometry with a Millipore Guava easyCyte 8HT instrument (Luminex, USA). Data were evaluated by means of FlowJo software (Tree Star) using Watson Pragmatic algorithms.60 The fitting of the curve was chosen to keep the root mean square error between 1.0 and 2.0, alongside with good fitting visual model."}, "[5]": {"tested_on": "SW480", "assay": "Cell cycle distribution, flow cytometry with propidium iodide", "conditions": "for Cell cycle distribution G1, % / Cell cycle distribution G2/M, % / Cell cycle distribution S, %: 24 h, mean ± SD; for Relative change in cell cycle distribution G1, % / Relative change in cell cycle distribution G2/M, % / Relative change in cell cycle distribution S, %: difference to untreated control", "method": "as §2, §3"}},
  "data": [
    {"substance": "Chlorido[1‐phenyl‐2‐methyl‐3‐oxo‐κO‐pyridine‐4(1H)‐thionato‐κS](η^5‐1,2,3,4,5‐pentamethylcyclopentadienyl)rhodium(III) [Compound 5 b]", "values": [
      {"measurement": "IC50", "setting": "[1]", "value": "2000 ± 800", "unit": "nM"},
      {"measurement": "IC50", "setting": "[2]", "value": "660 ± 80", "unit": "nM"},
      {"measurement": "IC50", "setting": "[3]", "value": "670 ± 40", "unit": "nM"},
      {"measurement": "Cell cycle distribution G1, %", "setting": "[4]; CH1/PA-1, 2.5 µM", "value": "22 ± 2", "unit": "%"},
      {"measurement": "Cell cycle distribution S, %", "setting": "[4]; CH1/PA-1, 2.5 µM", "value": "43 ± 9", "unit": "%"},
      {"measurement": "Relative change in cell cycle distribution G1, %", "setting": "[4]; CH1/PA-1, 2.5 µM", "value": -18, "unit": "%"},
      {"measurement": "Relative change in cell cycle distribution G2/M, %", "setting": "[4]; CH1/PA-1, 2.5 µM", "value": 11, "unit": "%"},
      {"measurement": "Relative change in cell cycle distribution S, %", "setting": "[4]; CH1/PA-1, 2.5 µM", "value": 7, "unit": "%"},
      {"measurement": "Cell cycle distribution G1, %", "setting": "[4]; CH1/PA-1, 5 µM", "value": "22 ± 6", "unit": "%"},
      {"measurement": "Cell cycle distribution G2/M, %", "setting": "[4]; CH1/PA-1, 5 µM", "value": "41 ± 4", "unit": "%"},
      {"measurement": "Cell cycle distribution S, %", "setting": "[4]; CH1/PA-1, 5 µM", "value": "37 ± 5", "unit": "%"},
      {"measurement": "Relative change in cell cycle distribution G1, %", "setting": "[4]; CH1/PA-1, 5 µM", "value": -18, "unit": "%"},
      {"measurement": "Relative change in cell cycle distribution G2/M, %", "setting": "[4]; CH1/PA-1, 5 µM", "value": 17, "unit": "%"},
      {"measurement": "Relative change in cell cycle distribution S, %", "setting": "[4]; CH1/PA-1, 5 µM", "value": 1, "unit": "%"},
      {"measurement": "Cell cycle distribution G1, %", "setting": "[4]; CH1/PA-1, 10 µM", "value": "19 ± 7", "unit": "%"},
      {"measurement": "Cell cycle distribution G2/M, %", "setting": "[4]; CH1/PA-1, 10 µM", "value": "39 ± 5", "unit": "%"},
      {"measurement": "Cell cycle distribution S, %", "setting": "[4]; CH1/PA-1, 10 µM", "value": "42 ± 1", "unit": "%"},
      {"measurement": "Relative change in cell cycle distribution G1, %", "setting": "[4]; CH1/PA-1, 10 µM", "value": -21, "unit": "%"},
      {"measurement": "Relative change in cell cycle distribution G2/M, %", "setting": "[4]; CH1/PA-1, 10 µM", "value": 15, "unit": "%"},
      {"measurement": "Relative change in cell cycle distribution S, %", "setting": "[4]; CH1/PA-1, 10 µM", "value": 6, "unit": "%"},
      {"measurement": "decrease in G1 phase", "setting": "[4]; CH1/PA‐1 cells, 10 μM", "value": "more than 20%"},
      {"measurement": "Cell cycle distribution G1, %", "setting": "[5]; SW480, 2.5 µM", "value": "37 ± 17", "unit": "%"},
      {"measurement": "Cell cycle distribution G2/M, %", "setting": "[5]; SW480, 2.5 µM", "value": "23 ± 7", "unit": "%"},
      {"measurement": "Cell cycle distribution S, %", "setting": "[5]; SW480, 2.5 µM", "value": "40 ± 11", "unit": "%"},
      {"measurement": "Relative change in cell cycle distribution G1, %", "setting": "[5]; SW480, 2.5 µM", "value": -11, "unit": "%"},
      {"measurement": "Relative change in cell cycle distribution G2/M, %", "setting": "[5]; SW480, 2.5 µM", "value": 4, "unit": "%"},
      {"measurement": "Relative change in cell cycle distribution S, %", "setting": "[5]; SW480, 2.5 µM", "value": 7, "unit": "%"},
      {"measurement": "Cell cycle distribution G1, %", "setting": "[5]; SW480, 5 µM", "value": "26 ± 13", "unit": "%"},
      {"measurement": "Cell cycle distribution G2/M, %", "setting": "[5]; SW480, 5 µM", "value": "27 ± 9", "unit": "%"},
      {"measurement": "Cell cycle distribution S, %", "setting": "[5]; SW480, 5 µM", "value": "48 ± 7", "unit": "%"},
      {"measurement": "Relative change in cell cycle distribution G1, %", "setting": "[5]; SW480, 5 µM", "value": -22, "unit": "%"},
      {"measurement": "Relative change in cell cycle distribution G2/M, %", "setting": "[5]; SW480, 5 µM", "value": 8, "unit": "%"},
      {"measurement": "Relative change in cell cycle distribution S, %", "setting": "[5]; SW480, 5 µM", "value": 15, "unit": "%"},
      {"measurement": "Cell cycle distribution G1, %", "setting": "[5]; SW480, 10 µM", "value": "34 ± 10", "unit": "%"},
      {"measurement": "Cell cycle distribution G2/M, %", "setting": "[5]; SW480, 10 µM", "value": "17 ± 6", "unit": "%"},
      {"measurement": "Cell cycle distribution S, %", "setting": "[5]; SW480, 10 µM", "value": "49 ± 8", "unit": "%"},
      {"measurement": "Relative change in cell cycle distribution G1, %", "setting": "[5]; SW480, 10 µM", "value": -14, "unit": "%"},
      {"measurement": "Relative change in cell cycle distribution G2/M, %", "setting": "[5]; SW480, 10 µM", "value": -2, "unit": "%"},
      {"measurement": "Relative change in cell cycle distribution S, %", "setting": "[5]; SW480, 10 µM", "value": 16, "unit": "%"},
      {"measurement": "G1 phase decrease", "setting": "[5]; SW480 cells, 5 μM", "value": "more than 20%"}
    ]}
  ]
}
